Tested on: 186277-243-T-J2-PDC spheroids with HUVEC/MSC, viability
Assay: Anticancer human tumor 186277-243-T-J2-PDC patient-derived colon adenocarcinoma cell line growth inhibition [CLK]
Settings: for IC50: curve of first compound; for viability, T/C: stronger effect = lower value
In short: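 Multi-cell-type spheroids combined patient-derived tumor cells with HUVEC endothelial cells and human mesenchymal stem cells. Paired agents were dosed in half-log steps down from about clinical Cmax, or from 10 microM where Cmax was unknown.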

[1] = second compound 0.0316 µM, first compound 0.0316 µM
[2] = second compound 0.0316 µM, first compound 0.1 µM
[3] = second compound 0.0316 µM, first compound 0.316 µM
[4] = second compound 0.0316 µM, first compound 1 µM
[5] = second compound 0.0316 µM, first compound 3.16 µM
[6] = second compound 0.0316 µM, first compound 10 µM
[7] = second compound 0.1 µM, first compound 0.0316 µM
[8] = second compound 0.1 µM, first compound 0.1 µM
[9] = second compound 0.1 µM, first compound 0.316 µM
[10] = second compound 0.1 µM, first compound 1 µM
[11] = second compound 0.1 µM, first compound 3.16 µM
[12] = second compound 0.1 µM, first compound 10 µM
[13] = second compound 0.316 µM, first compound 0.0316 µM
[14] = second compound 0.316 µM, first compound 0.1 µM
[15] = second compound 0.316 µM, first compound 0.316 µM
[16] = second compound 0.316 µM, first compound 1 µM
[17] = second compound 0.316 µM, first compound 3.16 µM
[18] = second compound 0.316 µM, first compound 10 µM
[19] = second compound 1 µM, first compound 0.0316 µM
[20] = second compound 1 µM, first compound 0.1 µM
[21] = second compound 1 µM, first compound 0.316 µM
[22] = second compound 1 µM, first compound 1 µM
[23] = second compound 1 µM, first compound 3.16 µM
[24] = second compound 1 µM, first compound 10 µM
[25] = second compound 3.16 µM, first compound 0.0316 µM
[26] = second compound 3.16 µM, first compound 0.1 µM
[27] = second compound 3.16 µM, first compound 0.316 µM
[28] = second compound 3.16 µM, first compound 1 µM
[29] = second compound 3.16 µM, first compound 3.16 µM
[30] = second compound 3.16 µM, first compound 10 µM
[31] = second compound 10 µM, first compound 0.0316 µM
[32] = second compound 10 µM, first compound 0.1 µM
[33] = second compound 10 µM, first compound 0.316 µM
[34] = second compound 10 µM, first compound 1 µM
[35] = second compound 10 µM, first compound 3.16 µM
[36] = second compound 10 µM, first compound 10 µM
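Also: compound exposure lasted seven days before readout.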
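For viability, T/C in this document: 100% = DMSO vehicle control wells.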

Nc1ccn(C2OC(CO)C(O)C2(F)F)c(=O)n1 (stereo unspecified) + CNC(=O)c1ccc(Nc2nc(OC3CCCC3)c3c(-c4ccc5nc(C)oc5c4)c[nH]c3n2)c(OC)c1
IC50 (second compound 0.0316 µM): < 31.6 nM
IC50 (second compound 0.1 µM): < 31.6 nM
IC50 (second compound 0.316 µM): < 31.6 nM
IC50 (second compound 1 µM): < 31.6 nM
IC50 (second compound 3.16 µM): < 31.6 nM
IC50 (second compound 10 µM): < 31.6 nM
viability, T/C [1]: 13.3%
viability, T/C [2]: 10.8%
viability, T/C [3]: 12%
viability, T/C [4]: 14.9%
viability, T/C [5]: 14.7%
viability, T/C [6]: 13.9%
viability, T/C [7]: 15.8%
viability, T/C [8]: 13.3%
viability, T/C [9]: 13.3%
viability, T/C [10]: 13.3%
viability, T/C [11]: 14.8%
viability, T/C [12]: 12.4%
viability, T/C [13]: 9.79%
viability, T/C [14]: 9.9%
viability, T/C [15]: 9.39%
viability, T/C [16]: 11.3%
viability, T/C [17]: 9.88%
viability, T/C [18]: 8.65%
viability, T/C [19]: 9.1%
viability, T/C [20]: 8.33%
viability, T/C [21]: 8.5%
viability, T/C [22]: 8.25%
viability, T/C [23]: 5.96%
viability, T/C [24]: 6.34%
viability, T/C [25]: 8.6%
viability, T/C [26]: 7.49%
viability, T/C [27]: 7.26%
viability, T/C [28]: 8.76%
viability, T/C [29]: 6.3%
viability, T/C [30]: 6.38%
viability, T/C [31]: 9.98%
viability, T/C [32]: 9.04%
viability, T/C [33]: 6.83%
viability, T/C [34]: 7.74%
viability, T/C [35]: 6.77%
viability, T/C [36]: 5.84%

CC1(C)CCC(CN2CCN(c3ccc(C(=O)NS(=O)(=O)c4ccc(NCC5CCOCC5)c([N+](=O)[O-])c4)c(Oc4cnc5[nH]ccc5c4)c3)CC2)=C(c2ccc(Cl)cc2)C1 + CN1CCN(c2cc(C(=O)Nc3cc4cc(-c5cnn(C)c5)ccc4cn3)ccn2)CC1
IC50 (second compound 0.0316 µM): 5780 nM
IC50 (second compound 0.1 µM): 5350 nM
IC50 (second compound 0.316 µM): < 31.6 nM
IC50 (second compound 1 µM): < 31.6 nM
IC50 (second compound 3.16 µM): < 31.6 nM
IC50 (second compound 10 µM): < 31.6 nM
viability, T/C [1]: 92.5%
viability, T/C [2]: 93.2%
viability, T/C [3]: 94.6%
viability, T/C [4]: 92.1%
viability, T/C [5]: 104%
viability, T/C [6]: 8.6%
viability, T/C [7]: 82.4%
viability, T/C [8]: 76.3%
viability, T/C [9]: 87.6%
viability, T/C [10]: 94.5%
viability, T/C [11]: 101%
viability, T/C [12]: 4.42%
viability, T/C [13]: 30.1%
viability, T/C [14]: 32.8%
viability, T/C [15]: 23.6%
viability, T/C [16]: 30.9%
viability, T/C [17]: 25.3%
viability, T/C [18]: 2.48%
viability, T/C [19]: 0.62%
viability, T/C [20]: 0.92%
viability, T/C [21]: 0.31%
viability, T/C [22]: 0.75%
viability, T/C [23]: 1.8%
viability, T/C [24]: 0.48%
viability, T/C [25]: 1.95%
viability, T/C [26]: 0.91%
viability, T/C [27]: 1.71%
viability, T/C [28]: 1.07%
viability, T/C [29]: 1.36%
viability, T/C [30]: 0.41%
viability, T/C [31]: 0.95%
viability, T/C [32]: 1.04%
viability, T/C [33]: 1.34%
viability, T/C [34]: 0.91%
viability, T/C [35]: 0.55%
viability, T/C [36]: 0.2%

C=C(F)C(=O)N1CCN(c2nc(OCC3CCCN3C)nc3c2CCN(c2cccc4cccc(Cl)c24)C3)CC1CC#N (stereo unspecified) + CN1CCN(c2cc(C(=O)Nc3cc4cc(-c5cnn(C)c5)ccc4cn3)ccn2)CC1
IC50 (second compound 0.0316 µM): 6630 nM
IC50 (second compound 0.1 µM): 5050 nM
IC50 (second compound 0.316 µM): < 31.6 nM
IC50 (second compound 1 µM): < 31.6 nM
IC50 (second compound 3.16 µM): < 31.6 nM
IC50 (second compound 10 µM): < 31.6 nM
viability, T/C [1]: 84.2%
viability, T/C [2]: 78.5%
viability, T/C [3]: 115%
viability, T/C [4]: 90.6%
viability, T/C [5]: 106%
viability, T/C [6]: 24.9%
viability, T/C [7]: 82.7%
viability, T/C [8]: 76.7%
viability, T/C [9]: 81.4%
viability, T/C [10]: 95.8%
viability, T/C [11]: 83.5%
viability, T/C [12]: 1.11%
viability, T/C [13]: 25.1%
viability, T/C [14]: 27.1%
viability, T/C [15]: 30%
viability, T/C [16]: 35%
viability, T/C [17]: 32%
viability, T/C [18]: 1.64%
viability, T/C [19]: 1.65%
viability, T/C [20]: 0.34%
viability, T/C [21]: 1.16%
viability, T/C [22]: 0.32%
viability, T/C [23]: 0.22%
viability, T/C [24]: 2.22%
viability, T/C [25]: 1.31%
viability, T/C [26]: 1.53%
viability, T/C [27]: 1.42%
viability, T/C [28]: 1.35%
viability, T/C [29]: 1.01%
viability, T/C [30]: 1.05%
viability, T/C [31]: 0.68%
viability, T/C [32]: 1%
viability, T/C [33]: 1.19%
viability, T/C [34]: 0.79%
viability, T/C [35]: 1.52%
viability, T/C [36]: 0.2%

From PubChem BioAssay AID2060625 (Molecular Pharmacology Branch, DTP, NCI, 2025)
